# Earlier results as cited in article PMC9034292 (The Journal of Biological Chemistry, 2022).
# Legend:
# [1] = system: HIV-1 RT–associated RNase H
# [2] = one divalent cation-coordinating ion
compound,measurement,setting,value
CC(C)c1ccc(O)c(=O)c(O)c1 [β-thujaplicinol],Inhibition of HIV RNase H,[1],inhibits
same,Manner of inhibition of HIV-1 RT–associated RNase H,[1],reversible noncompetitive
same,Inhibition of HBV RNase H,HBV RNase H,inhibits
dihydroxytropylium ion,Kd,[2],150 µM
same,logK (stability constant),[2],3.82
